According to patent US9856427B2, “Method to convert fermentation mixture into fuels” (The Regents of the University of California, priority 2011, dated 2018):

Test system: Clostridium acetobutylicum
Test: Toxicity study: growth inhibition and cell viability
Type: cell-based
Conditions: up to 1:1 volume ratios of extractant to media
From the text: Growth inhibition and cell viability was examined in a study using up to 1:1 volume ratios of extractant to media.

**Q.** How did the “toxicity to Clostridium acetobutylicum (growth inhibition and cell viability)” value turn out when CCCC(=O)OCC(COC(=O)CCC)OC(=O)CCC [glyceryl tributyrate] was run?
**A.** The value was “non-toxic”.
